Results: patent publication US20020128189A1, “Ubiquitination of the transcription factor E2A” (President and Fellows of Harvard College, a Massachusetts …, priority 1996, published 2002)
Square brackets hold non-standard residues; d marks the D form. Peptide text beside a SMILES is read from it. * marks the point of attachment. Nle = CCCC[C@H](N)C(=O)O; Nva = CCC[C@H](N)C(=O)O; Cbz = O=C(OCc1ccccc1)*

Key:
ovalbumin degradation = details: Rock et al., cited from earlier work; for IC50: read-out: concentration causing 50% inhibition of ovalbumin degradation
20S proteasome = target: T1, 20S proteasome (Homo sapiens, UniProt P28074); details: cited from earlier work
T1 sequence (P28074 60-263): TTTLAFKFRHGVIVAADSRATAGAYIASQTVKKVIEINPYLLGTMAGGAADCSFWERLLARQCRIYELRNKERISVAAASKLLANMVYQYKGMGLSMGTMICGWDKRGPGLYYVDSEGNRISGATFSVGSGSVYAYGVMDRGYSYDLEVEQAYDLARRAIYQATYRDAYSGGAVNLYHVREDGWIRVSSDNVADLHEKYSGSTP

[1] = tested on: p27 inhibitor of cyclin-dependent kinases; details: cited from earlier work
[2] = tested on: NF-kB precursor protein p105; details: cited from earlier work
human E12 = assay: Pulse-chase analysis of E12 degradation in COS7 cells treated with proteasome/protease inhibitors; assay type: cell-based; details: 60 min pulse, 3 hour chase
Protocol: FIG. 2 is a bar graph representing the relative expression of E12 after treatment with the proteasome inhibitor MG132 and the protease inhibitor leupeptin, as follows. COS cells were electroporated with a human E12 expression plasmid. After electroporation (48 hours), cells were treated with either DMSO (a diluent for MG132), 50 μM MG132, or 1 μg/ml leupeptin for 1 hour. The cells were then pulse-chased with [^35S] methionine and the cell extracts were immunoprecipitated with anti-E12 antibody and analyzed by SDS-PAGE fluorography. Inhibitors were present throughout the entire pulse-chase period.
Cells in 100 mm dishes (either transfected cells 48 hours after transfection or stable cell lines at about 80% confluence) were starved in Met-free DMEM (supplemented with 5% dialyzed fetal bovine serum) for 60 minutes at 37° C. Cells were then pulse-labeled at 37° C. with 100 μCi/ml [^35S]met for 60 minutes at 37° C. Cells were chased in warm DMEM supplemented with 100 μg/ml Met. For the proteasome inhibitor experiment, the inhibitor MG132 […] was added 1 hour before pulse-chase and was present throughout the entire period. […] Incorporation of ^35S into the total protein pool was determined by trichloroacetic acid (TCA) precipitation. […] The bands were measured using a PhosphorImager (Molecular Dynamics). […]

Structure (SMILES) | IC50 (ovalbumin degradation) [nM] | inhibition of the chymotryptic site on the 20S proteasome (20S proteasome) | effect on degradation of the p27 inhibitor of cyclin-dependent kinases [1] | effect on processing of the NF-kB precursor protein p105 [2] | further results
CSCC[C@@H](C=O)NC(=O)[C@H](CC(C)C)NC(=O)[C@H](CC(C)C)NC(C)=O [LLM, N-acetyl-L-leucinyl-L-leucinyl-methional] (Ac-Leu-Leu-Met-aldehyde) | > 100000 | – | – | – | –
CCCC[C@@H](C=O)NC(=O)[C@H](CC(C)C)NC(=O)[C@H](CC(C)C)NC(C)=O [MG101] (Ac-Leu-Leu-[Nle]-aldehyde) | – | potent inhibitors | inhibit the degradation | block the processing | –
CCC[C@@H](C=O)NC(=O)[C@H](CC(C)C)NC(=O)[C@H](CC(C)C)NC(=O)OCc1ccccc1 [MG115, N-carbobenzoxyl-L-leucinyl-L-leucinyl-L-norvalinal] (Cbz-Leu-Leu-[Nva]-aldehyde) | 400 | potent inhibitors | – | – | potency relative to LLnL (ovalbumin proteolysis) (ovalbumin degradation): approximately 5 fold
CC(C)C[C@@H](C=O)NC(=O)[C@H](CC(C)C)NC(=O)[C@H](CC(C)C)NC(=O)OCc1ccccc1 [MG132] (Cbz-Leu-Leu-Leu-aldehyde) | – | potent inhibitors | inhibit the degradation | block the processing | E12 protein stability (effect on E12 degradation) (human E12; 50 μM MG132 added 1 hour before and present throughout): stabilized
CC(=O)N[C@@H](CC(C)C)C(=O)N[C@@H](CC(C)C)C(=O)N[C@H](C=O)CCCNC(=N)N [leupeptin] | – | – | – | – | E12 protein stability (effect on E12 degradation) (human E12; leupeptin 1 μg/ml added 1 hour before and present throughout): no effect
